Laboratory results taken from paper PMC11802874, “The hypolipidemic effect of MI-883, the combined CAR agonist/ PXR antagonist, in diet-induced hypercholesterolemia model” (Nature Communications, 2025).
Several values for one entry are separate records, joined by “and”; a condition that tells them apart may be missing. Equal values may be shown once.

Legend:
[1] = molecular target: T1, human CAR ligand-binding domain (LBD) (Homo sapiens, UniProt Q14994); experiment: TR-FRET CAR coactivator assay (LanthaScreen); assay type: biochemical
T1 construct: purchased ThermoFisher Scientific PV4836
T1 sequence (Q14994 109-348 isoform Q14994-2 limits assumed, other chains not shown): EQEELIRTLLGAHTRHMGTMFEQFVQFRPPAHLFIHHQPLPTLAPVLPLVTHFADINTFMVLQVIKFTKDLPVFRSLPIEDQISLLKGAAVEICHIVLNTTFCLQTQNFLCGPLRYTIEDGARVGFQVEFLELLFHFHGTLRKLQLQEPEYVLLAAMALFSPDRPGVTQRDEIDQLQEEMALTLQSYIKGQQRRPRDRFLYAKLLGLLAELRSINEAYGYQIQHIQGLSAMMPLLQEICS

[2] = test system: humanized PXR-CAR-CYP3A4/3A7 mice, ileum; experiment: RT-qPCR and Western blotting of ileum samples (HFD/HCD studies); assay type: in vivo, mouse; conditions: for Npc1l1 mRNA (RT-qPCR ileum): FigS14a
Source text: Specific TaqMan probes were used to analyze ileal samples, following the protocol described in Supplementary Table S3.
Western blotting experiments have been performed in BioRad instruments with BioRad precasted gels and reagents. Antibodies are listed in Supplementary Table S4. Densitometry has been done using ChemiDoc™ MP Imaging System and software (BioRad, Hercules, USA). Data are presented as relative protein expression to control samples. For protein expression quantification, areas in histograms have been calculated and related to a reference protein.

[3] = Metabolic stability in human liver S9 fraction
Experimental: Shimadzu HPLC system including vacuum degasser, gradient pumps, reverse phase HPLC column, column oven, and autosampler with an API 4000 QTRAP mass spectrometer (Applied Biosystems/MDS Sciex (AB Sciex) with Turbo V ion source and TurboIonspray interface were used. The reference compound midazolam, which is metabolized both by phase I and phase II enzymes, was used. The elimination constant (kel), half-life (t1/2), and intrinsic clearance (Clint) were determined[19] (Table S1).
Supplementary Figure 1. […] Test compounds (1 μM, final DMSO concentration 1%) were incubated at 37 °C with shaking at 100 rpm. Four time points over 120 minutes have been analyzed. The reactions were stopped by adding 420 μL of acetonitrile-water mixture (90:10). Supernatants were analyzed by the HPLC system coupled with a tandem mass spectrometer. The percentage (in % of initial concertation) of the test compounds remaining after incubation in plasma and their half-lives (t1/2) were calculated. […] The stability of the compound was tested in human liver S9 fraction. Cofactors were used such as UDPGA (for glucuronidation), PAPS (for sulfation), and reduced glutathione (for conjugation of GSH). Compounds were tested in triplicate with or without NADPH. Propantheline and midazolam were used as unstable control compounds in the experiments. Data represent the means±S.D. from at least three independent samples.

ERβ = ERβ (Homo sapiens, UniProt Q92731); experiment: Luciferase reporter gene assay ERβ, HepG2
Chain of ERβ (Q92731 264-498 limits assumed, species assumed): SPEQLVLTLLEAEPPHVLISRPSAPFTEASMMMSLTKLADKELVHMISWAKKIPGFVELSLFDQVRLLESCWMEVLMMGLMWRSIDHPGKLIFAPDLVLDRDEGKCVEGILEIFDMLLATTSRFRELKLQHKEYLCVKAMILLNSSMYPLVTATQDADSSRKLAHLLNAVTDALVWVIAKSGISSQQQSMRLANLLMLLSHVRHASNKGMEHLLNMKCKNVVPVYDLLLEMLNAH
Source text: Gal4-LBD constructs of tested nuclear receptors have been used together with pGL4.31[luc2P/GAL4UAS/Hygro] luciferase reporter construct and pRL-TK Renilla expression vector (both from Promega, Hercules, USA) in HepG2 cells transfected with Lipofectamine 2000 or 3000 reagents. For GRα and FXR receptors, full-length expression vectors have been used with pGRE-luc or pFXRE-luc luciferase constructs. For the aryl hydrocarbon receptor (AhR), p1A1-luc construct was used with only pRL-TK vector for transfection normalization. A dual reporter assay (Promega, Hercules, USA) was used to analyze both firefly and Renilla luciferase activities.
Gal4-LBD constructs of tested nuclear receptors have been used together with pGL5-luc luciferase reporter construct and pRL-TK Renilla expression vector in HepG2 cells transfected with Lipofectamine 2000 or 3000 reagents. For GRα and FXR receptors, full-length expression vectors have been used with pGRE-luc or pFXRE-luc luciferase constructs. For the aryl hydrocarbon receptor (AhR), p1A1-luc construct was used with only pRL-TK vector for transfection normalization. […] Bars represent means±S.D. (n=3).

human CAR variant 3 = molecular target: T2, human CAR variant 3 (Homo sapiens, UniProt Q14994, DEL233-236); experiment: CAR3 luciferase reporter assay (CYP2B6-luc) in HepG2 cells; assay type: cell-based
T2 construct: host or cells: HepG2
T2 sequence (Q14994 with tags, fused parts or gaps isoform Q14994-8 DEL233-236): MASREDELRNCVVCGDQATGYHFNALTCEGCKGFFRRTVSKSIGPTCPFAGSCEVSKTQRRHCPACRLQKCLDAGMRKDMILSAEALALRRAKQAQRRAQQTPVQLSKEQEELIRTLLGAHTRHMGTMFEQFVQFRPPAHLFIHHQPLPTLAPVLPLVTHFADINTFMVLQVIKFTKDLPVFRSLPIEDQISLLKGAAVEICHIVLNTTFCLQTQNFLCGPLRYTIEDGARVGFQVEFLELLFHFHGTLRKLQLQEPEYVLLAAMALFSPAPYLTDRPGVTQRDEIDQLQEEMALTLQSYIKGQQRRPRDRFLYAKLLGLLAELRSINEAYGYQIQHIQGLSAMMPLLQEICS
T2 sequence (P19793 1-462 partner): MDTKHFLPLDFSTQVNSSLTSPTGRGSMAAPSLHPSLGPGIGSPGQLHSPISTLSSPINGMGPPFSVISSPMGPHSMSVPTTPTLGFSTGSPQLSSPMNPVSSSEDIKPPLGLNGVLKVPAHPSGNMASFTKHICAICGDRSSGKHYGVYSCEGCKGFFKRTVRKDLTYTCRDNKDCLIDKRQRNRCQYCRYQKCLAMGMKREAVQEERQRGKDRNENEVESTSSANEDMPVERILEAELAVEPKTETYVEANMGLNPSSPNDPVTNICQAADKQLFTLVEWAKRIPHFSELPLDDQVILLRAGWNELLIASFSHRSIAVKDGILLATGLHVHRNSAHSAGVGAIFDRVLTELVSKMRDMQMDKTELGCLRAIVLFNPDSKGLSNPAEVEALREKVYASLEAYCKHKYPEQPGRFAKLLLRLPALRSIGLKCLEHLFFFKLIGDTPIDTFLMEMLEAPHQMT
Experimental: CAR3 luciferase reporter assay (with CYP2B6-luc) was performed in human hepatocellular carcinoma HepG2 cells as we described[19] For the CAR3 assay (Fig. 1d), a CYP2B6-luc reporter plasmid (originally entitled B-1.6k/PB/XREM) was kindly donated by Dr. Hongbing Wang (University of Maryland School of Pharmacy, Baltimore, MD, USA). All expression vectors are described in Supplementary, Chapter 4).
Cells were treated for 24 h with MI-883 in a range of concentration from 0.1 nM to 30 µM (n = 3). The half maximal effective concentration (EC50) to activate CAR or inhibit PXR (IC50) in the assays was calculated from at least eight points of the dose-response curves using the GraphPad Prism software.

[4] = test system: humanized PXR-CAR-CYP3A4/3A7 mice; experiment: Glucose homeostasis: IPGTT, IPITT, glycemia, insulin (HFD study); assay type: in vivo, mouse; set-up: insulinemia: unit not given here
Experimental: Intraperitoneal glucose tolerance test (IPGTT) and Intraperitoneal Insulin Tolerance Test (IPITT) assays were performed one week before the end of the HFD study. For IPGTT, mice fasted for 18 h were intraperitoneally injected with 20% D-glucose solution (2 g/kg BW). Blood was sampled before the injection and 15, 30, 60, and 120 min after. For the IPITT assay, mice fasted for 4 h were administered with 0.75 IU insulin/kg BW. Blood was sampled before the injection and 15, 30, 45, 60, and 90 min after.

[5] = FigS14b, ileum, individual animals, relative to vehicle

Structure (SMILES): NC(=O)c1cc(Cn2cc(-c3c(-c4ccc(Cl)cc4)nc4cc(F)ccn34)nn2)ccc1Cl [MI-883, 2-chloro-5-((4-(2-(4-chlorophenyl)-7-fluoroimidazo[1,2-a]pyridin-3-yl)-1H-1,2,3-triazol-1-yl)methyl)benzamide]
- TR-FRET CAR Coactivator assay, mean signal (Fig. 1b) ([1]; 100pM): 1
- TR-FRET CAR Coactivator assay, mean signal (Fig. 1b) ([1]; 1nM): 1.012
- TR-FRET CAR Coactivator assay, mean signal (Fig. 1b) ([1]; 10nM): 1.235
- TR-FRET CAR Coactivator assay, mean signal (Fig. 1b) ([1]; 100nM): 1.572
- TR-FRET CAR Coactivator assay, mean signal (Fig. 1b) ([1]; 0.5μM): 1.870
- TR-FRET CAR Coactivator assay, mean signal (Fig. 1b) ([1]; 1 μM): 2.020
- TR-FRET CAR Coactivator assay, mean signal (Fig. 1b) ([1]; 10 μM): 2.020
- TR-FRET CAR Coactivator assay, mean signal (Fig. 1b) ([1]; 30 μM): 2.046
- EC50 ([1]; recombinant CAR LBD): 73 ± 20 nM
- Npc1l1 mRNA (RT-qPCR ileum) ([2]; HCD, ileum, individual animals, relative to vehicle): 0.6886 and 0.6208 and 0.503 and 1.313 and 0.759 and 0.8325
- Npc1l1 mRNA (RT-qPCR ileum) ([2]; HFD, ileum, individual animals, relative to vehicle): 1.357 and 1.364 and 0.9665 and 1.432
- Abcg5 mRNA (RT-qPCR ileum) [2, 5]: 1.01 and 0.5455 and 0.4999 and 1.367 and 0.6847 and 1.339
- Abcg8 mRNA (RT-qPCR ileum) [2, 5]: 0.9573 and 0.7781 and 0.4243 and 1.303 and 0.6152 and 1.193
- Fgf15 mRNA (RT-qPCR ileum) ([2]; FigS14c, HCD, ileum, individual animals, relative to vehicle): 0.6669 and 0.9092 and 0.1811 and 0.1054 and 2.113 and 1.33
- Fgf15 mRNA (RT-qPCR ileum) ([2]; FigS14c, HFD, ileum, individual animals, relative to vehicle): 0.03638 and 0.6965 and 4.34 and 0.01802
- Shp mRNA (RT-qPCR ileum) ([2]; FigS14c, ileum, individual animals, relative to vehicle): 1.017 and 0.2256 and 0.2775 and 0.6923 and 3.416 and 0.8457
- Asbt protein in the mouse ileum ([2]; HFD study): significantly decreased
- ileum Cyp2b6 i, individual animals ([2]; HFD study, relative to control): 4.346 and 14.7968 and 1.588 and 2.908 and 3.922 and 0.8524
- ileum Mrp4 i, individual animals ([2]; HFD study, relative to control): 0.275 and 0.7792 and 1.874 and 1.502 and 1.969 and 1.209
- ileum Slc10a2 i, individual animals ([2]; HFD study, relative to control): 0.08727 and 0.1129 and 0.7704 and 0.8835 and 0.4948
- ileum Slc51a i, individual animals ([2]; HFD study, relative to control): 0.2127 and 0.5386 and 0.8471 and 0.8796 and 0.7946 and 0.7965
- ileum Slc51b i, individual animals ([2]; HFD study, relative to control): 0.7174 and 1.595 and 0.9945 and 0.7427 and 0.4728 and 0.5989
- ileal Npc1l1 and Abcg5/8 ([2]; Supplementary Fig. 14): did not observe any regulation
- ileal Shp and Fgf15 mRNA levels ([2]; Supplementary Fig. 14): not affected
- half-life at 2 µM ([3]; human, liver S9 fraction): 2.85 h
- microsomal CLint at 2 µM ([3]; human, liver S9 fraction): 2 µL/min/mg
- Stability in S9 fraction (human liver), % remaining ([3]; time 0 (min), 2 μM): 100
- Stability in S9 fraction (human liver), % remaining ([3]; time 20): 100
- Stability in S9 fraction (human liver), % remaining ([3]; time 40): 92
- Stability in S9 fraction (human liver), % remaining ([3]; time 60): 96
- Stability in S9 fraction (human liver), % remaining ([3]; time 120): 84
- NRs assays: ERbeta (relative to ctrl, replicates) (ERβ): 0.84 and 0.86 and 0.88
- CAR3 variant activation (Fig. 1d), replicates (human CAR variant 3; concentration 0.01 (unit not given), HepG2, 24 h): 1
- CAR3 variant activation (Fig. 1d), replicates (human CAR variant 3; concentration 0.1 (unit not given)): 1.35 and 1.4 and 2.3
- CAR3 variant activation (Fig. 1d), replicates (human CAR variant 3; concentration 1 (unit not given)): 4.55 and 1.6 and 1.1
- CAR3 variant activation (Fig. 1d), replicates (human CAR variant 3; concentration 10 (unit not given)): 4.3 and 13.5 and 6.2
- CAR3 variant activation (Fig. 1d), replicates (human CAR variant 3; concentration 30 (unit not given)): 10.05 and 10.1 and 9.78
- insulinemia ([4]; HFD study): no effect
- postprandial glucose concentrations in IPGTT or IPITT ([4]; HFD study): did not significantly decrease
- plasma glucose levels ([4]; both studies): no effect
